Results taken from patent US6737383B1, “Herbicidal oxadiazolidines” (priority 1999, dated 2004).

Legend:
[1] = test system: rape; test: Test B pre/postemergence rape; type: in vivo, Brassica napus
Method in brief: (§1)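 Test chemicals in a non-phytotoxic solvent mixture with surfactant were sprayed preemergence onto planted seeds and postemergence onto plants 2 to 18 cm tall (1- to 4-leaf stage). After twelve to sixteen days in a greenhouse, injury was visually rated against untreated controls from 0 (no effect) to 10 (complete control).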

[2] = test system: wild oat; test: Test B pre/postemergence wild oat; type: in vivo, Avena fatua
Method in brief: as §1

[3] = test system: surinam grass; test: Test B pre/postemergence surinam grass; type: in vivo, Brachiaria decumbens
Method in brief: as §1

[4] = test system: pigweed; test: Test B pre/postemergence pigweed; type: in vivo, Amaranthus retroflexus
Method in brief: as §1

[5] = test system: wheat; test: Test B pre/postemergence wheat; type: in vivo, Triticum aestivum
Method in brief: as §1

[6] = test system: morningglory; test: Test B pre/postemergence morningglory; type: in vivo, Ipomoea hederacea
Method in brief: as §1

[7] = test system: rice; test: Test B flood test rice; type: in vivo, Oryza sativa
Method in brief: (§2)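 Read-out is a visual response score from 0 (no effect) to 10 (complete control), assigned by comparison with untreated controls. Treatment was applied at the 2-leaf stage, and plants stayed in the greenhouse for twelve to sixteen days before scoring.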

[8] = test system: sugar beet; test: Test B pre/postemergence sugar beet; type: in vivo, Beta vulgaris
Method in brief: as §1

[9] = test system: corn; test: Test B pre/postemergence corn; type: in vivo, Zea mays
Method in brief: as §1

[10] = test system: giant foxtail; test: Test B pre/postemergence giant foxtail; type: in vivo, Setaria faberii
Method in brief: as §1

[11] = test system: velvetleaf; test: Test B pre/postemergence velvetleaf; type: in vivo, Abutilon theophrasti
Method in brief: as §1

[12] = test system: blackgrass; test: Test B pre/postemergence blackgrass; type: in vivo, Alopecurus myosuroides
Method in brief: as §1

[13] = test system: cocklebur; test: Test B pre/postemergence cocklebur; type: in vivo, Xanthium strumarium
Method in brief: as §1

[14] = test system: bedstraw; test: Test B pre/postemergence bedstraw; type: in vivo, Galium aparine
Method in brief: as §1

[15] = test system: smallflower flatsedge; test: Test B flood test smallflower flatsedge; type: in vivo, Cyperus difformis
Method in brief: as §2

[16] = test system: soybean; test: Test B pre/postemergence soybean; type: in vivo, Glycine max
Method in brief: as §1

[17] = Postemergence, Rate 125 g/ha, scale of 0 to 10 where 0 is no effect and 10 is complete control
[18] = Preemergence, Rate 62 g/ha, scale 0 to 10 (0 no effect, 10 complete control)
[19] = Preemergence, Rate 125 g/ha, 0 is no effect, 10 is complete control
[20] = Preemergence, Rate 250 g/ha, scale 0 to 10, 0 is no effect, 10 is complete control
[21] = Preemergence, Rate 500 g/ha, scale 0 to 10 (0 no effect, 10 complete control)
[22] = Rate 62 g/ha, Postemergence, scale of 0 to 10 where 0 is no effect and 10 is complete control
[23] = Rate 250 g/ha, Postemergence, scale 0 to 10, 0 is no effect, 10 is complete control
[24] = Rate 500 g/ha, Postemergence, scale 0 to 10
[25] = Postemergence (flood test species), Rate 125 g/ha, scale of 0 to 10 where 0 is no effect and 10 is complete control
[26] = Rate 62 g/ha, Postemergence section, flood test species, scale of 0 to 10 where 0 is no effect and 10 is complete control
[27] = Rate 250 g/ha, Postemergence (flood test), scale 0 to 10, 0 is no effect, 10 is complete control
[28] = Rate 250 g/ha, Pre-emergence, flood-test species, scale 0 to 10, 0 is no effect, 10 is complete control
[29] = Rate 2000 g/ha, Pre-emergence (as headed), scale 0 to 10

For `C=C(C)Cn1c(=O)on(C(=O)N(c2ccc(F)cc2)C(C)C)c1=O` [Compound 139], the “Rape plant response rating” value [1, 17] was 2, the “Rape plant response rating” value [1, 18] was 0 and the “Rape plant response rating (0 to 10 scale)” value [1, 19] was 0. The “Rape plant response rating” value [1, 20] was 4, the “Rape plant response rating” value [1, 21] was 9 and the “Rape plant response rating” value [1, 22] was 0. For the same molecule, the “Plant response rating, Rape” value [1, 23] was 2, the “Rape plant response rating” value [1, 24] was 4 and the “Wild oats plant response rating” value [2, 17] was 2. For the same molecule, the “Wild oats plant response rating” value [2, 18] was 3, the “Wild oats plant response rating (0 to 10 scale)” value [2, 19] was 7 and the “Wild oats plant response rating” value [2, 20] was 8. The “Wild oats plant response rating” value [2, 21] was 9, the “Wild oats plant response rating” value [2, 22] was 2 and the “Plant response rating, Wild oats” value [2, 23] was 4. For the same molecule, the “Wild oats plant response rating” value [2, 24] was 4, the “B. signalgrass plant response rating” value [3, 17] was 2 and the “B. signalgrass plant response rating” value [3, 18] was 0. For the same molecule, the “B. signalgrass plant response rating (0 to 10 scale)” value [3, 19] was 2, the “B. signalgrass plant response rating” value [3, 20] was 8 and the “B. signalgrass plant response rating” value [3, 21] was 9. The “B. signalgrass plant response rating” value [3, 22] was 2, the “Plant response rating, B. signalgrass” value [3, 23] was 6 and the “B. signalgrass plant response rating” value ([3]; Rate 500 g/ha, Postemergence, scale of 0 to 10 where 0 is no effect and 10 is complete control) was 7. For the same molecule, the “Redroot pigweed plant response rating” value [4, 17] was 3, the “Redroot pigweed plant response rating” value [4, 18] was 6 and the “Redroot pigweed plant response rating (0 to 10 scale)” value [4, 19] was 8. For the same molecule, the “Redroot pigweed plant response rating” value [4, 20] was 10, the “Redroot pigweed plant response rating” value [4, 21] was 10 and the “Redroot pigweed plant response rating” value [4, 22] was 3. The “Plant response rating, Redroot pigweed” value [4, 23] was 4, the “Redroot pigweed plant response rating” value [4, 24] was 4 and the “Wheat plant response rating” value [5, 17] was 2. For the same molecule, the “Wheat plant response rating” value [5, 18] was 0, the “Wheat plant response rating (0 to 10 scale)” value [5, 19] was 0 and the “Wheat plant response rating” value [5, 20] was 2. For the same molecule, the “Wheat plant response rating” value [5, 21] was 4, the “Wheat plant response rating” value [5, 22] was 2 and the “Plant response rating, Wheat” value [5, 23] was 4. For the same molecule, the “Wheat plant response rating” value [5, 24] was 4, the “Morningglory plant response rating” value [6, 17] was 5 and the “Morningglory plant response rating” value [6, 18] was 0. The “Morningglory plant response rating (0 to 10 scale)” value [6, 19] was 0, the “Morningglory plant response rating” value [6, 20] was 0 and the “Morningglory plant response rating” value [6, 21] was 0. The “Morningglory plant response rating” value [6, 22] was 3, the “Plant response rating, Morningglory” value [6, 23] was 6 and the “Morningglory plant response rating” value [6, 24] was 9. For the same molecule, the “Rice plant response rating” value [7, 25] was 0, the “Rice plant response rating” value ([7]; Rate 31 g/ha, Postemergence section (flood test species), scale 0 to 10) was 0 and the “Rice plant response rating” value [7, 26] was 0. The “Plant response rating, Rice” value [7, 27] was 0, the “Rice plant response rating” value [7, 28] was 0 and the “Plant response rating, Rice” value ([7]; Rate 500 g/ha, headed Pre-emergence (flood test species), scale 0 to 10 (0 no effect, 10 complete control)) was 0. For the same molecule, the “Rice plant response rating” value ([7]; Rate 1000 g/ha, Pre-emergence (as headed), scale 0 to 10) was 0, the “Rice plant response rating” value [7, 29] was 0 and the “Sugarbeets plant response rating” value [8, 17] was 0. For the same molecule, the “Sugarbeets plant response rating” value [8, 18] was 3, the “Sugarbeets plant response rating (0 to 10 scale)” value [8, 19] was 3 and the “Sugarbeets plant response rating” value [8, 20] was 4. For the same molecule, the “Sugarbeets plant response rating” value [8, 21] was 6, the “Sugarbeets plant response rating” value [8, 22] was 0 and the “Plant response rating, Sugarbeets” value [8, 23] was 2. For the same molecule, the “Sugarbeets plant response rating” value [8, 24] was 2, the “Corn plant response rating” value [9, 17] was 2 and the “Corn plant response rating” value [9, 18] was 0. The “Corn plant response rating (0 to 10 scale)” value [9, 19] was 0, the “Corn plant response rating” value [9, 20] was 4 and the “Corn plant response rating” value [9, 21] was 7. For the same molecule, the “Corn plant response rating” value [9, 22] was 0, the “Plant response rating, Corn” value [9, 23] was 2 and the “Corn plant response rating” value [9, 24] was 2. The “Giant foxtail plant response rating” value [10, 17] was 8, the “Giant foxtail plant response rating” value [10, 18] was 10 and the “Giant foxtail plant response rating (0 to 10 scale)” value [10, 19] was 10. For the same molecule, the “Giant foxtail plant response rating” value [10, 20] was 10, the “Giant foxtail plant response rating” value [10, 21] was 10 and the “Giant foxtail plant response rating” value [10, 22] was 6. For the same molecule, the “Plant response rating, Giant foxtail” value [10, 23] was 9, the “Giant foxtail plant response rating” value [10, 24] was 9 and the “Velvetleaf plant response rating” value [11, 17] was 4. The “Velvetleaf plant response rating” value [11, 18] was 2, the “Velvetleaf plant response rating (0 to 10 scale)” value [11, 19] was 3 and the “Velvetleaf plant response rating” value [11, 20] was 5. The “Velvetleaf plant response rating” value [11, 21] was 7, the “Velvetleaf plant response rating” value [11, 22] was 2 and the “Plant response rating, Velvetleaf” value [11, 23] was 5. The “Velvetleaf plant response rating” value [11, 24] was 6, the “Blackgrass plant response rating” value [12, 17] was 2 and the “Blackgrass plant response rating” value [12, 18] was 4. For the same molecule, the “Blackgrass plant response rating (0 to 10 scale)” value [12, 19] was 6, the “Blackgrass plant response rating” value [12, 20] was 9 and the “Blackgrass plant response rating” value [12, 21] was 10. The “Blackgrass plant response rating” value [12, 22] was 2, the “Plant response rating, Blackgrass” value [12, 23] was 7 and the “Blackgrass plant response rating” value [12, 24] was 8. The “Cocklebur plant response rating” value [13, 17] was 0, the “Cocklebur plant response rating” value [13, 18] was 0 and the “Cocklebur plant response rating (0 to 10 scale)” value [13, 19] was 0. The “Cocklebur plant response rating” value [13, 20] was 0, the “Cocklebur plant response rating” value [13, 21] was 0 and the “Cocklebur plant response rating” value [13, 22] was 0. For the same molecule, the “Plant response rating, Cocklebur” value [13, 23] was 2, the “Cocklebur plant response rating” value [13, 24] was 2 and the “Bedstraw plant response rating” value [14, 17] was 2. The “Bedstraw plant response rating” value [14, 18] was 0, the “Bedstraw plant response rating (0 to 10 scale)” value [14, 19] was 0 and the “Bedstraw plant response rating” value [14, 20] was 2. The “Bedstraw plant response rating” value [14, 21] was 9, the “Plant response rating, Bedstraw” value [14, 23] was 5 and the “Bedstraw plant response rating” value ([14]; Rate 500 g/ha, Postemergence, scale 0 to 10, 0 no effect, 10 complete control) was 5. For the same molecule, the “S. Flatsedge plant response rating” value [15, 25] was 0, the “S. Flatsedge plant response rating” value ([15]; Pre-emergence, Rate 1000 g/ha, scale 0 to 10 (0 no effect, 10 complete control)) was 0 and the “S. Flatsedge plant response rating” value [15, 26] was 0. The “Plant response rating, S. Flatsedge” value [15, 27] was 0, the “S. Flatsedge plant response rating” value [15, 28] was 0 and the “S. Flatsedge plant response rating” value ([15]; Rate 500 g/ha, Pre-emergence, flood test species, scale 0 to 10 (0 no effect, 10 complete control)) was 0. The “S. Flatsedge plant response rating” value [15, 29] was 0, the “Soybean plant response rating” value [16, 17] was 2 and the “Soybean plant response rating” value [16, 18] was 0. The “Soybean plant response rating (0 to 10 scale)” value [16, 19] was 0, the “Soybean plant response rating” value [16, 20] was 0 and the “Soybean plant response rating” value [16, 21] was 2. The “Soybean plant response rating” value [16, 22] was 1, the “Plant response rating, Soybean” value [16, 23] was 4 and the “Soybean plant response rating” value [16, 24] was 5.
